# In patent EP3210469A1, “USE OF SUBSTITUTED THIO-1,2,4-TRIAZOLES FOR INCREASING STRESS TOLERANCE IN PLANTS” (Bayer CropScience AG, priority 2016, dated 2017):
# Tests used:
# [1] = biological target: T1, Phosphatase ABI1 über den Co-Regulator RCAR11/PYR1 (Arabidopsis thaliana, UniProt O49686+P49597); experiment: In vitro ABI1 phosphatase inhibition assay via co-regulator RCAR11/PYR1 (MUP dephosphorylation, fluorescence); format: biochemical; conditions: Konzentration 5mM of the substance in DMSO and water; 20 min at 35 °C; MUP substrate, emission 460 nm
# T1 sequence (O49686 1-191): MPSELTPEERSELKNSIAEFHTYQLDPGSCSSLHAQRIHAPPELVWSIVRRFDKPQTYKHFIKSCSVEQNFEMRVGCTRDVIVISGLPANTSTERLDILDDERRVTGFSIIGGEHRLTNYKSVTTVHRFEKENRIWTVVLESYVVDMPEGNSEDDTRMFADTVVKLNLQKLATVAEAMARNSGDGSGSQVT
# T1 sequence (P49597 1-434): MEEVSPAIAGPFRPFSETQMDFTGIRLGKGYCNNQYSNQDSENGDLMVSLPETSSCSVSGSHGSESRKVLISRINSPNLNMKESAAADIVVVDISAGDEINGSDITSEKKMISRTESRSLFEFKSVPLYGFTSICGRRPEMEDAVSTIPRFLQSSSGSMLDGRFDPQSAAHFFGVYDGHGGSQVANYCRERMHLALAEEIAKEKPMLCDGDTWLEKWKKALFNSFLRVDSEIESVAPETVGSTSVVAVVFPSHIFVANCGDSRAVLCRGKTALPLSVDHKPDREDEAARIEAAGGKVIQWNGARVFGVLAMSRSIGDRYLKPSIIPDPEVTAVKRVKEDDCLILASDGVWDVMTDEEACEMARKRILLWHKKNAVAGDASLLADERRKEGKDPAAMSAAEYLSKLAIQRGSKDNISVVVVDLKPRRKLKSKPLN
# From the text: Effekte des Phytohormons Abscisinsäure (ABA) auf das Verhalten von Pflanzen unter abiotischem Stress und der Wirkmechanismus von ABA sind in der Literatur beschrieben (vgl. Abrams et al, WO97/23441, Park et al. Science, 2009, 324, 1068; Grill et al. Science, 2009, 324, 1064; Tanokura et al. Biophysics, 2011, 7, 123; Schroeder et al. Plant J. 2010, 61, 290). Daher kann man mit Hilfe eines geeigneten in vitro-Testsystems eine Korrelation zwischen der Wirkung von ABA und der Stressantwort einer Pflanze unter abiotischem Stress ableiten. Unter Wassermangel (Trockenstress) bilden Pflanzen das Phytohormon Abscisinsäure (ABA). Dieses bindet mit einem Co-Regulator (Regulatory Component of ABA-Receptor = RCAR nach Grill et al. Science, 2009, 324, 1064 oder PYR/PYL nach Cutler et al. Science, 2009, 324, 1068) an eine Phosphatase (z.B. ABI1, eine Typ 2C Proteinphosphatase, auch als PP2C abgekürzt) und hemmt diese in ihrer Aktivität. In der Folge wird eine "downstream" Kinase (z.B. SnRK2) nicht mehr dephosphoryliert. Diese somit aktive Kinase schaltet über Phosphorylierung von Transkriptionsfaktoren (z.B. AREB/ABF, vgl. Yoshida et al Plant J. 2010, 61, 672) ein genetisches Schutzprogramm zur Erhöhung der Trockenstresstoleranz an.
# In dem im Folgenden beschriebenen Assay wird die Hemmung der Phosphatase ABI1 über den Co-Regulator RCAR11/PYR1 aus Arabidopsis thaliana genutzt. […]
# Zea mays = experiment: Drought stress greenhouse test, in vivo Part A (spray application, visual rating vs stressed control plants); parameters: key: 0: kein Effekt; +: leicht positiver Effekt; ++: deutlich positiver Effekt; +++: stark positiver Effekt; conditions: Trockenstress, 600 l/ha water, mean rating of 3 pots
# From the text: (§1) Samen von mono- bzw. dikotylen Kulturpflanzen wurden in Plastiktöpfen in sandigem Lehmboden ausgesät, mit Erde oder Sand abgedeckt und im Gewächshaus unter guten Wachstumsbedingungen angezogen. Die Behandlung der Versuchspflanzen erfolgte im frühen Laubblattstadium (BBCH10 - BBCH13). Zur Gewährleistung einer uniformen Wasserversorgung vor Stressbeginn wurden die bepflanzten Töpfe vor Substanzapplikation durch Anstaubewässerung mit Wasser versorgt.
# (§2) Die in Form von benetzbaren Pulvern (WP) formulierten erfindungsgemässen Verbindungen wurden als wässrige Suspension mit einer Wasseraufwandmenge von umgerechnet 600 I/ha unter Zusatz von 0,2% Netzmittel (z.B. Agrotin) auf die grünen Pflanzenteile gesprüht. Unmittelbar nach Substanzapplikation erfolgte die Stressbehandlung der Pflanzen.
# (§3) Der Trockenstress wurde durch langsames Abtrocknen unter folgenden Bedingungen induziert: • "Tag": 14 Stunden beleuchtet bei ~ 26-30°C • "Nacht": 10 Stunden ohne Beleuchtung bei ~ 18-20°C.
# (§4) Die Dauer der jeweiligen Stressphasen richtete sich hauptsächlich nach dem Zustand der gestressten Kontrollpflanzen. Sie wurde (durch Wiederbewässerung und Transfer in ein Gewächshaus mit guten Wachstumsbedingungen) beendet, sobald irreversible Schäden an den gestressten Kontrollpflanzen zu beobachten waren.
# (§5) Nach Beendigung der Stressphase folgte eine ca. 4-7 tägige Erholungsphase, während der die Pflanzen abermals unter guten Wachstumsbedingungen im Gewächshaus gehalten wurden. Die Dauer der Erholungsphase richtete sich hauptsächlich danach, wann die Versuchspflanzen einen Zustand erreicht hatten, der eine visuelle Bonitur potenzieller Effekte ermöglichte, und war daher variabel.
# (§6) Wenn dieser Zeitpunkt erreicht war, wurde das Erscheinungsbild der mit Testsubstanzen behandelten Pflanzen im Vergleich zu den gestressten Kontrollpflanzen nach folgenden Kategorien erfasst:
# (§7) Um auszuschliessen, dass die beobachteten Effekte von der ggf. fungiziden oder insektiziden Wirkung der Testverbindungen beeinflusst wurden, wurde zudem darauf geachtet, dass die Versuche ohne Pilzinfektion oder Insektenbefall abliefen.
# (§8) In jedem Versuch wurden pro Kultur und Dosierung Pflanzen in 3 Töpfen behandelt und separat ausgewertet. Die in den unten stehenden Tabellen A-1 bis A-3 angegebenen Werte für die erhaltenen Effekte stellen Mittelwerte aus den erhaltenen Bonituren dar.
# (§9) Wirkungen ausgewählter Verbindungen der allgemeinen Formel (I) unter Trockenstress: Tabelle A-1
# Brassica napus = experiment: as above; parameters: key: 0: kein Effekt; +: leicht positiver Effekt; ++: deutlich positiver Effekt; +++: stark positiver Effekt; conditions: Trockenstress, Dosierung 250 g/ha, 600 l/ha water, mean rating of 3 pots
# From the text: as §1, §2, §3, §4, §5, §6, §7, §8, §9
# Triticum aestivum = experiment: as above; parameters: key: 0: kein Effekt; +: leicht positiver Effekt; ++: deutlich positiver Effekt; +++: stark positiver Effekt; conditions: Trockenstress, 600 l/ha water, mean rating of 3 pots
# From the text: as §1, §2, §3, §4, §5, §6, §7, §8, §9
structure (smiles),measurement,setting,value
CC(C=CC1(O)C(C)=CC(=O)CC1(C)C)=CC(=O)O (stereo not shown) [Abscisinsäure],ABI1 Inhibition,[1],++++ (Inhibition ≥ 90 %)
"CCn1c(SCc2ccc(C#N)cc2)nnc1-c1ccc(Cl)cc1 [B6-63, 3-(4-Chlorphenyl)-4-ethyl-5-[(4-cyanobenzyl)-sulfanyl]-4H-1,2,4-triazol]",Effekt (ZEAMX),Zea mays; Dosierung 250 g/ha,+++
same,Effekt (BRSNS),Brassica napus,+++
"Fc1ccc(CSc2nnc(-c3ccc(Cl)cc3)n2C2CC2)cc1 [D6-13, 3-(4-Chlorphenyl)-4-cyclopropyl-5-[(4-fluorbenzyl)-sulfanyl]-4H-1,2,4-triazol]",Effekt (TRZAS),Triticum aestivum; Dosierung 25 g/ha,++
same,Effekt (ZEAMX),Zea mays; Dosierung 25 g/ha,+++
O=C(CSc1nnc(-c2ccc(Cl)cc2)n1C1CC1)Nc1ccccc1Cl [D6-726],Effekt (TRZAS),Triticum aestivum; Dosierung 250 g/ha,++
same,Effekt (ZEAMX),Zea mays; Dosierung 250 g/ha,+++
